From PubChem BioAssay (NCI) come the findings set out here.

What all share (assay): NCI tumour cell line growth inhibition, 48 h
For experiment [1], the system named is LXFL 529 NSCLC.
Experiment [2] deals with HOP-18 NSCLC.
Experiment [3] relates to KM20L2 colon.
The subject of experiment [4] is DMS 273 small cell lung.
In experiment [5] the test system is DLD-1 colon.
Experiment [6] concerns XF 498 CNS.
Experiment [7] relates to MDA-N.
For experiment [8], the system named is M19-MEL melanoma.
In experiment [9] the test system is RXF-631 renal.

SMILES strings stand for the structures.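 Dose response: 5 concentrations. Exposure: 48 h. Format: 96-well plates. Endpoint: linear interpolation; highest concentration if not reached. TGI is the concentration that stops growth completely.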

Consider `NC(=O)c1c([N+](=O)[O-])cc(C(F)(F)F)cc1[N+](=O)[O-]`, for which the TGI was over 100 µM in [1]; over 100 µM in experiment [2]; 93.5 µM in experiment [3]; over 100 µM in experiment [4]; over 100 µM in experiment [5]; over 100 µM in experiment [6].
`S=c1[nH]nc(Cc2ccccc2)c(=S)[nH]1`: the TGI in experiment [7], in [8], in experiment [1], in [9], in experiment [2] and in experiment [4] was over 100 µM in each case. Moreover, the TGI in experiment [5] and in experiment [6] was over 100 µM in each case.
`NC1=NC(c2ccc(Cl)cc2)N(c2ccc(S(N)(=O)=O)cc2)C(N)=N1` (centres undefined) yielded a TGI in experiment [7] of over 100 µM.
For the compound `O=C(NCCO)c1ccc([N+](=O)[O-])cc1`, the TGI in experiment [8], in experiment [1], in experiment [9], in [3], in [4] and in experiment [5] was over 100 µM throughout. For the same compound, the TGI in experiment [6] is over 100 µM.
In the case of `C[N+](C)(C)CC1CCC/C1=N/O` (centres undefined), the TGI in experiment [8] was over 100 µM; in experiment [1], over 100 µM; in experiment [2], over 100 µM; in [3], 49.4 µM; in [4] it was over 100 µM; in experiment [5], over 100 µM. Further, the TGI in experiment [6] was 3.1 µM.
`Cn1c(=O)c(NC(=O)C(Cl)(Cl)Cl)nc2ccccc21`: the TGI in [8], in [1], in experiment [9], in experiment [3], in experiment [4] and in [5] was over 100 µM each time. In addition, the TGI in [6] is over 100 µM.
For `O=C1NC(=O)C(=Nc2cccc3c(=O)[nH][nH]c(=O)c23)C(c2nc3ccccc3s2)C1=O` (centres undefined), the TGI in experiment [8], in [1], in experiment [9], in [2], in experiment [3] and in experiment [4] was over 100 µM each time. Moreover, the TGI in experiment [5] and in experiment [6] was over 100 µM in each case.
`Cc1cn(C2C=CC(CO)O2)c(=O)[nH]c1=O` (centres undefined) registered a TGI in experiment [7] of over 1000 µM.
As for `COC(=O)C1OC2(CCCC3CC32)O[C@H]1C(=O)OC` (some centres undefined), the TGI in experiment [7] was over 100 µM.
For `O=C(CCC(=O)Nc1ccc(Cl)c(Cl)c1)CC(=O)c1ccc(F)cc1`, the TGI in experiment [8], in experiment [1], in [9], in experiment [2], in experiment [3] and in [4] was over 100 µM each time. This compound gave a TGI in experiment [5] of over 100 µM.
Regarding `COc1cccc(CSCC(=O)O)c1`, the TGI in experiment [7] is over 100 µM.
Turning to `COC(=O)CCC1CCc2c(OC)ccc(OC)c2C1=O` (centres undefined), the TGI in [1], in [3], in experiment [4] and in [5] was over 100 µM in each case.
As to `Cc1ccc(NC(=O)C2C(=O)N(c3ccc(C)c(C)c3)C(=O)/C2=N\NC(N)=O)cc1C` (centres undefined), the TGI in experiment [8], in [1], in experiment [2], in experiment [3], in experiment [5] and in [6] was over 100 µM throughout.
Regarding `Cc1noc2c1C(=O)CCC2`, the TGI in [8], in experiment [1], in experiment [2], in experiment [3], in experiment [5] and in [6] was over 100 µM in each case.
On to `O=C1C2=C(c3ccccc31)C(c1ccccc1)N1C(=O)CSC1=N2` (centres undefined), for which the TGI in experiment [7] is 47.3 µM; in experiment [8], over 100 µM; in experiment [1], over 100 µM; in [9], over 100 µM; in [3] it was over 100 µM; in experiment [4] it was over 100 µM. The TGI in experiment [5] and in experiment [6] was over 100 µM throughout.
Turning to `CN(C)c1ccc(/C=C/c2ccc(/C=C/c3ccc(N(C)C)cc3)cc2)cc1`, the TGI in experiment [8], in experiment [1], in experiment [9], in experiment [2], in experiment [3] and in [4] was over 100 µM throughout. The TGI in experiment [5] was over 100 µM.
Regarding `O=S(=O)(O)c1ccc(N=Nc2nc(C(F)(F)F)c(C(F)(F)F)[nH]2)cc1`, the TGI in experiment [8], in [1], in [9], in experiment [2], in [3] and in [4] was over 100 µM in each case. In addition, the TGI in experiment [5] was over 100 µM; in experiment [6], 41.1 µM.
As for `COC(=O)C(=CNC(N)=O)C(=O)OC`, in experiment [7], the TGI is over 100 µM.
On to `O=C(CSc1ncn[nH]1)C[P+](c1ccccc1)(c1ccccc1)c1ccccc1`, for which the TGI in [8], in experiment [1], in experiment [3], in [4], in [5] and in experiment [6] was over 100 µM each time.
`CCCCCCCCCCCCCCCCNCCCN(C)CCCN`: the TGI in [8] came out at 41.3 µM; in experiment [1], 33.2 µM; in [3] it was 32.7 µM; in experiment [4] it was 34.8 µM; in experiment [5], 36 µM.
`CN(C)C(=Nc1nc(=[N+](C)C)ss1)N(C)C`: the TGI in experiment [8], in experiment [1], in experiment [9], in [2], in [3] and in experiment [4] was over 100 µM each time. The TGI in experiment [5] and in experiment [6] was over 100 µM in each case.
Compound `COc1cc(OC)c2nccc(NCCCN(C)C)c2c1[N+](=O)[O-]` gave a TGI in [7] of over 100 µM.
